How the values were obtained:
Experiment in all cases: cells
[1] = system: MSTO-211H; format: functional, cell-based, Homo sapiens; details: Homo sapiens, MSTO-211H
Description: SANGER: Inhibition of human MSTO-211H cell growth in a cell viability assay.

[2] = system: KP-4; format: functional, cell-based, Homo sapiens; details: Homo sapiens, KP-4; read-out: IC50;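 also: human KP-4 cells, with growth inhibition read out through a cell viability assay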
Description: SANGER: Inhibition of human KP-4 cell growth in a cell viability assay.

[3] = system: EM-2; format: functional, cell-based; details: Homo sapiens;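 also: growth inhibition of EM-2 cells, read out with a cell viability assay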
Description: SANGER: Inhibition of human EM-2 cell growth in a cell viability assay.

[4] = system: EFO-27; format: functional, cell-based, Homo sapiens; details: Homo sapiens, EFO-27;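 also: growth inhibition of EFO-27 cells, read out with a cell viability assay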
Description: SANGER: Inhibition of human EFO-27 cell growth in a cell viability assay.

[5] = system: KM12; format: functional, cell-based, Homo sapiens; details: Homo sapiens, KM12;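 also: KM12 cell growth inhibition, read out with a cell viability assay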
Description: SANGER: Inhibition of human KM12 cell growth in a cell viability assay.

[6] = system: HSC-2; format: functional, cell-based, Homo sapiens; details: Homo sapiens, HSC-2;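 also: growth inhibition of human HSC-2 cells, read out by a cell viability assay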
Description: SANGER: Inhibition of human HSC-2 cell growth in a cell viability assay.

[7] = system: TE-11; format: functional, cell-based, Homo sapiens; details: Homo sapiens, TE-11;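 also: growth inhibition of human TE-11 cells, read out by a cell viability assay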
Description: SANGER: Inhibition of human TE-11 cell growth in a cell viability assay.

[8] = system: BHY; format: functional, cell-based, Homo sapiens; details: Homo sapiens, BHY;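 also: cell growth inhibition read out by a viability assay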
Description: SANGER: Inhibition of human BHY cell growth in a cell viability assay.

[9] = system: SK-MEL-30; format: functional, cell-based; details: Homo sapiens;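 also: growth inhibition of SK-MEL-30 cells, determined with a cell viability assay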
Description: SANGER: Inhibition of human SK-MEL-30 cell growth in a cell viability assay.

[10] = system: M059J; format: functional, cell-based, Homo sapiens; details: Homo sapiens, M059J;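 also: growth inhibition of M059J cells, read out with a cell viability assay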
Description: SANGER: Inhibition of human M059J cell growth in a cell viability assay.

[11] = system: COR-L88; format: functional, cell-based; details: Homo sapiens;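 also: growth inhibition of COR-L88 cells, read out with a cell viability assay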
Description: SANGER: Inhibition of human COR-L88 cell growth in a cell viability assay.

[12] = system: SNU-C2B; format: functional, cell-based, Homo sapiens; details: Homo sapiens, SNU-C2B;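 also: cell viability readout used to measure compound-driven suppression of SNU-C2B cell proliferation, IC50 marking half-maximal growth inhibition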
Description: SANGER: Inhibition of human SNU-C2B cell growth in a cell viability assay.

[13] = system: OAW-28; format: functional, cell-based, Homo sapiens; details: Homo sapiens, OAW-28;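 also: growth inhibition of OAW-28 cells, read out with a cell viability assay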
Description: SANGER: Inhibition of human OAW-28 cell growth in a cell viability assay.

[14] = system: Ramos-2G6-4C10; format: functional, cell-based; details: Homo sapiens;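 also: growth inhibition of the cell line, measured by a cell viability read-out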
Description: SANGER: Inhibition of human Ramos-2G6-4C10 cell growth in a cell viability assay.

[15] = system: FaDu; format: functional, cell-based, Homo sapiens; details: Homo sapiens, FaDu;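 also: cell viability readout of growth inhibition in FaDu cells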
Description: SANGER: Inhibition of human FADU cell growth in a cell viability assay.

[16] = system: RPMI-2650; format: functional, cell-based, Homo sapiens; details: Homo sapiens, RPMI-2650
Description: SANGER: Inhibition of human RPMI-2650 cell growth in a cell viability assay.

[17] = system: LB996-RCC; format: functional, cell-based; details: Homo sapiens
Description: SANGER: Inhibition of human LB996-RCC cell growth in a cell viability assay.

[18] = system: MDA-MB-361; format: functional, cell-based, Homo sapiens; details: Homo sapiens, MDA-MB-361
[19] = system: GR-ST; format: functional, cell-based; details: Homo sapiens
Description: SANGER: Inhibition of human GR-ST cell growth in a cell viability assay.

[20] = system: COLO-680N; format: functional, cell-based, Homo sapiens; details: Homo sapiens, COLO-680N;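 also: cell viability assay used to measure inhibition of COLO-680N cell growth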
Description: SANGER: Inhibition of human COLO-680N cell growth in a cell viability assay.

[21] = system: COLO-678; format: functional, cell-based, Homo sapiens; details: Homo sapiens, COLO-678
Description: SANGER: Inhibition of human COLO-678 cell growth in a cell viability assay.

[22] = system: KYSE-180; format: functional, cell-based, Homo sapiens; details: Homo sapiens, KYSE-180;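 also: growth inhibition of KYSE-180 cells, read out with a cell viability assay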
Description: SANGER: Inhibition of human KYSE-180 cell growth in a cell viability assay.

[23] = system: NCI-H358; format: functional, cell-based, Homo sapiens; details: Homo sapiens, NCI-H358;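 also: growth inhibition of NCI-H358 human cells, read out with a cell viability assay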
Description: SANGER: Inhibition of human NCI-H358 cell growth in a cell viability assay.

[24] = system: PFSK-1; format: functional, cell-based, Homo sapiens; details: Homo sapiens, PFSK-1;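 also: cell viability assay measuring how strongly compounds suppress growth of human PFSK-1 cells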
Description: SANGER: Inhibition of human PFSK-1 cell growth in a cell viability assay.

[25] = system: KP-N-YS; format: functional, cell-based; details: Homo sapiens;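 also: cell viability assay measuring inhibition of cell line growth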
Description: SANGER: Inhibition of human KP-N-YS cell growth in a cell viability assay.

[26] = system: A204; format: functional, cell-based, Homo sapiens; details: Homo sapiens, A204;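 also: growth inhibition of human A204 cells, read out with a cell viability assay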
Description: SANGER: Inhibition of human A204 cell growth in a cell viability assay.

[27] = system: NCI-H1563; format: functional, cell-based, Homo sapiens; details: Homo sapiens, NCI-H1563;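 also: growth inhibition of human NCI-H1563 cells, read out with a cell viability assay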
Description: SANGER: Inhibition of human NCI-H1563 cell growth in a cell viability assay.

[28] = system: Ca9-22; format: functional, cell-based, Homo sapiens; details: Homo sapiens, Ca9-22;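 also: growth inhibition of Ca9-22 cells, read out with a cell viability assay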
Description: SANGER: Inhibition of human Ca9-22 cell growth in a cell viability assay.

[29] = system: NMC-G1; format: functional, cell-based, Homo sapiens; details: Homo sapiens, NMC-G1;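 also: growth inhibition of the NMC-G1 cell line, measured with a cell viability read-out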
Description: SANGER: Inhibition of human NMC-G1 cell growth in a cell viability assay.

[30] = system: HTC-C3; format: functional, cell-based, Homo sapiens; details: Homo sapiens, HTC-C3;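 also: inhibition of cell growth, read out with a cell viability assay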
Description: SANGER: Inhibition of human HTC-C3 cell growth in a cell viability assay.

[31] = system: ACHN; format: functional, cell-based, Homo sapiens; details: Homo sapiens, ACHN;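 also: cell viability read-out used to gauge how strongly growth of human ACHN cells is suppressed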
Description: SANGER: Inhibition of human ACHN cell growth in a cell viability assay.

[32] = system: MKN-7; format: functional, cell-based, Homo sapiens; details: Homo sapiens, MKN-7;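 also: growth inhibition of MKN-7 cells, read out with a cell viability assay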
Description: SANGER: Inhibition of human MKN7 cell growth in a cell viability assay.

[33] = system: MDA-MB-415; format: functional, cell-based; details: Homo sapiens
[34] = system: D-336MG; format: functional, cell-based, Homo sapiens; details: Homo sapiens, D-336MG
Description: SANGER: Inhibition of human D-336MG cell growth in a cell viability assay.

[35] = system: TE-12; format: functional, cell-based; details: Homo sapiens;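 also: growth inhibition of TE-12 cells, read out by a cell viability assay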
Description: SANGER: Inhibition of human TE-12 cell growth in a cell viability assay.

[36] = system: NCI-H1437; format: functional, cell-based, Homo sapiens; details: Homo sapiens, NCI-H1437;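 also: growth inhibition of human NCI-H1437 cells, read out by a cell viability assay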
Description: SANGER: Inhibition of human NCI-H1437 cell growth in a cell viability assay.

[37] = system: SK-HEP1; format: functional, cell-based, Homo sapiens, SK-HEP-1; details: Homo sapiens, SK-HEP1;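 also: cell viability readout used to quantify reduction in proliferation of human SK-HEP-1 cells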
Description: SANGER: Inhibition of human SK-HEP-1 cell growth in a cell viability assay.

[38] = system: LCLC-103H cell line; format: functional, cell-based, Homo sapiens; details: Homo sapiens, LCLC-103H
Description: SANGER: Inhibition of human LCLC-103H cell growth in a cell viability assay.

[39] = system: MDA-MB-175-VII; format: functional, cell-based, Homo sapiens; details: Homo sapiens, MDA-MB-175-VII
[40] = system: CAKI-1; format: functional, cell-based, Homo sapiens; details: Homo sapiens, CAKI-1;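 also: growth inhibition of CAKI-1 cells, measured by a cell viability assay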
Description: SANGER: Inhibition of human CAKI-1 cell growth in a cell viability assay.

[41] = system: ES7; format: functional, cell-based, Homo sapiens; details: Homo sapiens, ES7;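 also: growth inhibition of cultured human ES7 cells, read out as cell viability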
Description: SANGER: Inhibition of human ES7 cell growth in a cell viability assay.

[42] = system: KNS-42; format: functional, cell-based, Homo sapiens; details: Homo sapiens, KNS-42;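 also: growth inhibition of KNS-42 cells, read out with a cell viability assay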
Description: SANGER: Inhibition of human KNS-42 cell growth in a cell viability assay.

[43] = system: NOS-1; format: functional, cell-based, Homo sapiens; details: Homo sapiens, NOS-1;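 also: growth inhibition of the human NOS-1 cell line, read out with a cell viability assay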
Description: SANGER: Inhibition of human NOS-1 cell growth in a cell viability assay.

[44] = system: 8505C; format: functional, cell-based, Homo sapiens; details: Homo sapiens, 8505C
Description: SANGER: Inhibition of human 8505C cell growth in a cell viability assay.

[45] = system: HuCCT-1; format: functional, cell-based, Homo sapiens, HuCCT1; details: Homo sapiens, HuCCT-1;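 also: growth inhibition of HuCCT-1 cells, read out by a cell viability assay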
Description: SANGER: Inhibition of human HuCCT1 cell growth in a cell viability assay.

[46] = system: 8-MG-BA; format: functional, cell-based, Homo sapiens; details: Homo sapiens, 8-MG-BA;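 also: growth inhibition of 8-MG-BA cells, read out with a cell viability assay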
Description: SANGER: Inhibition of human 8-MG-BA cell growth in a cell viability assay.

[47] = system: WM-115; format: functional, cell-based, Homo sapiens; details: Homo sapiens, WM-115
Description: SANGER: Inhibition of human WM-115 cell growth in a cell viability assay.

[48] = system: KLE; format: functional, cell-based, Homo sapiens; details: Homo sapiens, KLE;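 also: growth inhibition of human KLE cells, read out with a cell viability assay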
Description: SANGER: Inhibition of human KLE cell growth in a cell viability assay.

[49] = system: SW982; format: functional, cell-based; details: Homo sapiens;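 also: growth inhibition of SW982 cells, read out with a cell viability assay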
Description: SANGER: Inhibition of human SW982 cell growth in a cell viability assay.

COc1ccc(C2=N[C@@H](c3ccc(Cl)cc3)[C@@H](c3ccc(Cl)cc3)N2C(=O)N2CCNC(=O)C2)c(OC(C)C)c1 [NUTLIN-3]
IC50 [1]: 2.57 µM
IC50 [2]: > 8 µM
IC50 [3]: > 8 µM
IC50 [4]: > 8 µM
IC50 [5]: > 8 µM
IC50 [6]: > 8 µM
IC50 [7]: > 8 µM
IC50 [8]: > 8 µM
IC50 [9]: > 8 µM
IC50 [10]: > 8 µM
IC50 [11]: > 8 µM
IC50 [12]: > 8 µM
IC50 [13]: > 8 µM
IC50 [14]: > 8 µM
IC50 [15]: > 8 µM
IC50 [16]: 7.94 µM
IC50 [17]: 3.63 µM
IC50 [18]: > 8 µM
IC50 [19]: > 8 µM
IC50 [20]: > 8 µM
IC50 [21]: > 8 µM
IC50 [22]: > 8 µM
IC50 [23]: 7.45 µM
IC50 [24]: > 8 µM
IC50 [25]: > 8 µM
IC50 [26]: 3.06 µM
IC50 [27]: > 8 µM
IC50 [28]: > 8 µM
IC50 [29]: > 8 µM
IC50 [30]: > 8 µM
IC50 [31]: > 8 µM
IC50 [32]: > 8 µM
IC50 [33]: > 8 µM
IC50 [34]: > 8 µM
IC50 [35]: > 8 µM
IC50 [36]: > 8 µM
IC50 [37]: 3.74 µM
IC50 [38]: > 8 µM
IC50 [39]: > 8 µM
IC50 [40]: 3.13 µM
IC50 [41]: > 8 µM
IC50 [42]: > 8 µM
IC50 [43]: > 8 µM
IC50 [44]: > 8 µM
IC50 [45]: > 8 µM
IC50 [46]: > 8 µM
IC50 [47]: 6.93 µM
IC50 [48]: > 8 µM
IC50 [49]: 3.51 µM
